Source: the supplement of paper PMC9663587

What follows are cell lines tested with CN(C)C(=O)c1cc2cnc(Nc3ccc(N4CCNCC4)cn3)nc2n1C1CCCC1 [LEE011/Ribociclib] (assay: increase in dead-cell fraction, 72 h; higher = more death). Conditions: 0.001 µM.
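Also: breast cancer cell lines in 384-well plates, stained with Hoechst plus LIVE/DEAD far red dye and imaged, cells above an LDR intensity threshold counted dead, Hoechst-negative corpses included.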

Cell Line | increase in dead-cell fraction
SUM44PE | 0.0007
SUM52PE | 0.0005
SUM149 | -0.0066

Same assay, conditions: 0.003162 µM

Cell Line | increase in dead-cell fraction
PDXHCI002 | -0.0237
SKBR3 | -0.0049
SUM44PE | -0.0447
SUM52PE | 0.0031
SUM149 | -0.0033

Same assay, conditions: 0.01 µM

Cell Line | increase in dead-cell fraction
PDXHCI002 | -0.0167
SKBR3 | 0.0112
SUM44PE | 0.0327
SUM52PE | -0.0001
SUM149 | 0.001

Same assay, conditions: 0.03162 µM

Cell Line | increase in dead-cell fraction
PDXHCI002 | -0.0095
SKBR3 | 0.0071
SUM44PE | -0.0402
SUM52PE | 0.0002
SUM149 | -0.0061

Same assay, conditions: 0.1 µM

Cell Line | increase in dead-cell fraction
PDXHCI002 | -0.0015
SKBR3 | 0.0105
SUM44PE | 0.0001
SUM52PE | -0.0001
SUM149 | -0.0037

Same assay, conditions: 0.3162 µM

Cell Line | increase in dead-cell fraction
PDXHCI002 | -0.0029
SKBR3 | 0.0092
SUM44PE | -0.0342
SUM52PE | 0.0042
SUM149 | 0.0068

Same assay, conditions: 1 µM

Cell Line | increase in dead-cell fraction
PDXHCI002 | -0.0185
SKBR3 | 0.0206
SUM44PE | 0.0417
SUM52PE | 0.0047
SUM149 | 0.0043

Same assay, conditions: 3.162 µM

Cell Line | increase in dead-cell fraction
PDXHCI002 | 0.0196
SKBR3 | 0.0182
SUM44PE | -0.0186
SUM52PE | 0.0047
SUM149 | 0.0014

Same assay, conditions: 10 µM

Cell Line | increase in dead-cell fraction
PDXHCI002 | 0.0853
SKBR3 | 0.0119
SUM44PE | -0.0286
SUM52PE | 0.0071
SUM149 | 0.0135

What follows are cell lines tested with CN(C)C/C=C/C(=O)Nc1ccc(C(=O)N2CCC[C@@H](Nc3ncc(Cl)c(-c4c[nH]c5ccccc45)n3)C2)cc1 [THZ531] in the same assay as above. Conditions: 0.0001 µM.

Cell Line | increase in dead-cell fraction
PDXHCI002 | -0.0252
SKBR3 | 0.0012
SUM44PE | -0.0163
SUM52PE | -0.0007
SUM149 | 0.0045

Same assay, conditions: 0.0003162 µM

Cell Line | increase in dead-cell fraction
PDXHCI002 | -0.029
SKBR3 | 0.0021
SUM44PE | -0.0027
SUM52PE | 0.0017
SUM149 | -0.0031

Same assay, conditions: 0.001 µM

Cell Line | increase in dead-cell fraction
PDXHCI002 | -0.0123
SKBR3 | 0.0015
SUM44PE | 0.0202
SUM52PE | -0.0005
SUM149 | 0

Same assay, conditions: 0.003162 µM

Cell Line | increase in dead-cell fraction
PDXHCI002 | 0.0054
SKBR3 | -0.0089
SUM44PE | -0.008
SUM52PE | -0.0003
SUM149 | -0.0086

Same assay, conditions: 0.01 µM

Cell Line | increase in dead-cell fraction
PDXHCI002 | 0.0146
SKBR3 | -0.0005
SUM44PE | -0.0392
SUM52PE | -0.0005
SUM149 | -0.0054

Same assay, conditions: 0.03162 µM

Cell Line | increase in dead-cell fraction
PDXHCI002 | 0.0278
SKBR3 | 0.053
SUM44PE | -0.0411
SUM52PE | 0.0015
SUM149 | 0.0002

Same assay, conditions: 0.1 µM

Cell Line | increase in dead-cell fraction
PDXHCI002 | 0.241
SKBR3 | 0.155
SUM44PE | 0.0916
SUM52PE | 0.0054
SUM149 | 0.0001

Same assay, conditions: 0.3162 µM

Cell Line | increase in dead-cell fraction
PDXHCI002 | 0.379
SKBR3 | 0.175
SUM52PE | 0.0857
SUM149 | 0.0691

Same assay, conditions: 1 µM

Cell Line | increase in dead-cell fraction
PDXHCI002 | 0.263
SKBR3 | 0.338
SUM52PE | 0.311
SUM149 | 0.58

The cell lines below were run with CN1CC[C@H](c2c(O)cc(O)c3c(=O)cc(-c4ccccc4Cl)oc23)[C@H](O)C1 [Flavopiridol] in the same assay as above. Conditions: 0.0001 µM.

Cell Line | increase in dead-cell fraction
PDXHCI002 | -0.0222
SKBR3 | -0.0025
SUM44PE | -0.0156
SUM52PE | 0.0019
SUM149 | 0.0065

Same assay, conditions: 0.0003162 µM

Cell Line | increase in dead-cell fraction
PDXHCI002 | 0.0027
SKBR3 | -0.0004
SUM44PE | -0.0093
SUM52PE | -0.0012
SUM149 | -0.0003

Same assay, conditions: 0.001 µM

Cell Line | increase in dead-cell fraction
PDXHCI002 | -0.0057
SKBR3 | 0.0053
SUM44PE | -0.0478
SUM52PE | 0.0042
SUM149 | 0.0038

Same assay, conditions: 0.003162 µM

Cell Line | increase in dead-cell fraction
PDXHCI002 | 0.0089
SKBR3 | -0.001
SUM44PE | -0.0522
SUM52PE | 0.0019
SUM149 | -0.0072

Same assay, conditions: 0.01 µM

Cell Line | increase in dead-cell fraction
PDXHCI002 | 0.0079
SKBR3 | -0.0038
SUM44PE | 0.0491
SUM52PE | -0.0015
SUM149 | -0.0008

Same assay, conditions: 0.03162 µM

Cell Line | increase in dead-cell fraction
PDXHCI002 | 0
SKBR3 | -0.0082
SUM44PE | 0.0151
SUM52PE | 0
SUM149 | 0.0051

Same assay, conditions: 0.1 µM

Cell Line | increase in dead-cell fraction
PDXHCI002 | 0.0552
SKBR3 | 0.0051
SUM44PE | 0.263
SUM52PE | 0.0003
SUM149 | 0.0079

Same assay, conditions: 0.3162 µM

Cell Line | increase in dead-cell fraction
PDXHCI002 | 0.306
SKBR3 | 0.0663
SUM44PE | 0.457
SUM52PE | 0.0166
SUM149 | 0.114

Same assay, conditions: 1 µM

Cell Line | increase in dead-cell fraction
PDXHCI002 | 0.294
SKBR3 | 0.417
SUM52PE | 0.392
SUM149 | 0.787

The cell lines below were run with CCN1CCN(Cc2ccc(Nc3ncc(F)c(-c4cc(F)c5nc(C)n(C(C)C)c5c4)n3)nc2)CC1 in the same assay as above. Conditions: 0.001 µM.

Cell Line | increase in dead-cell fraction
PDXHCI002 | -0.0112
SKBR3 | 0.0059
